The subject of this experiment is morphine addiction in mice. Nature of the experiment: Morphine conditioned place preference scoring of mice. The experiment is classed as in vivo, C57BL/6J mice. The conditions noted are these: 6 h before morphine 20 mg/kg/day i.p., 7 days, vs morphine group.

Molecules are shown by their SMILES.

As to `Cc1c(O)c(=O)ccn1C` [Deferiprone, 3-hydroxy-1,2-dimethyl-4-(1H)-pyridone], the “preference score on morphine-paired side” value (Deferiprone 13 mg/mL, 1 μL into dorsal hippocampus, FIG. 5) is recorded as “significantly reduced”. As for `O=C(O)CNC(=O)c1ncc(-c2cccc(Cl)c2)cc1O` [Vadadustat], the “preference score on morphine-paired side” value (Vadadustat 10 mg/kg/day i.p., FIG. 4) was “significantly reduced”.

Source of the values: US20240374578A1, “USE OF MEDICINE FOR REDUCING IRON CONTENT IN BRAIN IN PREPARATION OF DRUG FOR TREATING AND/OR PREVENTING NEUROPSYCHIATRIC DISEASES” (SOOCHOW UNIVERSITY, priority 2022, published 2024).
